Reference: patent US9744156B2, “Methods and compositions for enhanced transungual delivery of AR-12” (Arno Therapeutics, Inc., priority 2015, dated 2017)
Read-outs that look alike come from different tables or passages of the source.

Columns and labels:
[1] = In vitro permeation across cadaver nail plate in modified Franz diffusion cell; assay type: in vitro ADME, human
Method: The permeation study was performed in Franz diffusion cells fitted with nail adapter. The finger nails (from all fingers except the little finger) of human cadavers obtained from ScienceCare were used for the transport studies. The nail plates were cleaned with water, and nail plates of 400-450 micron thickness were selected and visually inspected for presence of any cracks or pores. After mounting on the diffusion cell, the donor as well as the receiver compartments were filled with phosphate buffered saline […] and allowed to equilibrate for 3 hours for complete hydration of the nail plate. The electrical resistivity across the nail plate was measured prior to removal of the buffer to check the intactness of the nail plate after hydration.
The permeation testing was performed using modified Franz diffusion cell. The cell consisted of two compartments: a (1) a donor compartment for placing the drug solution/formulation and (2) a receiver compartment containing the buffer in which the drug diffuses. A nail holder is placed between the two compartments. The nail holder is curved to accommodate the contour of nail plate and secures the nail between the upper and lower part of the holder.
The donor compartment was filled with 500 microliters of drug solution (50 mg/ml) prepared in ethyl alcohol. For the control sample, no enhancer was incorporated. In the test cells, the enhancer was incorporated (5% PEG or 5% dexpanthenol or both). The donor compartment was covered with parafilm to minimize the loss of solvent. The drug solution was removed every 2 hours, the donor compartment was washed two times with 500 microliters of alcohol, and fresh drug solution (50 mg/ml) was placed in the donor compartment. […] The receiver compartment fluid was sampled at predetermined time points (e.g., 0, 12, 24, 36, 48, 60, 72, 84, 96, 108, 120, 132, 144, 156, 192, 204, […]) and the amount of drug permeated across the nail plate was quantitated by high pressure liquid chromatography.

[2] = 5% enhancer in 5% w/v AR-12 solution in ethanol, 24 h; FIG. 1

polyethylene glycol 400 [PEG-400]
enhancement of permeation flux of AR-12 across the nail plate [1]: about six fold

CC(C)(CO)[C@@H](O)C(=O)NCCCO [dexpanthenol]
suitability as enhancer for trans-ungual delivery of AR-12 (AR-12 accumulated in nail plate) [2]: preferred enhancers
enhancement of permeation flux of AR-12 across the nail plate ([1]; 5% enhancer in AR-12 solution (50 mg/ml in ethyl alcohol) versus control without enhancer, one week, FIG. 2): four fold

NCC(=O)Nc1ccc(-n2nc(C(F)(F)F)cc2-c2ccc3c(ccc4ccccc43)c2)cc1 [AR-12, 2-amino-N-(4-(5-(phenanthren-2-yl)-3-(trifluoromethyl)-1H-pyrazol-1-yl)phenyl)acetamide]
amount of drug permeated in a one week period across the nail plate ([1]; control, no enhancer, drug solution 50 mg/ml in ethyl alcohol, one week): 658 ± 306 ng
